Data taken from patent US20250127896A1, “CHIMERIC TIM4 RECEPTORS AND USES THEREOF” (CERO THERAPEUTICS HOLDINGS, INC., priority 2021, published 2025).

B1: CER 1183: wildtype human Tim4, SEQ ID NO:20; control molecule lacking intracellular T-cell signaling domains (protein)
chain: MSKEPLILWLMIEFWWLYLTPVTSETVVTEVLGHRVTLPCLYSSWSHNSNSMCWGKDQCPYSGCKEALIRTDGMRVTSRKSAKYRLQGTIPRGDVSLTILNPSESDSGVYCCRIEVPGWFNDVKINVRLNLQRASTTTHRTATTTTRRTTTTSPTTTRQMTTTPAALPTTVVTTPDLTTGTPLQMTTIAVFTTANTCLSLTPSTLPEEATGLLTPEPSKEGPILTAESETVLPSDSWSSVESTSADTVLLTSKESKVWDLPSTSHVSMWKTSDSVSSPQPGASDTAVPEQNKTTKTGQMDGIPMSMKNEMPISQLLMIIAPSLGFVLFALFVAFLRGKLMETYCSQKHTRLDYIGDSKNVLNDVQHGREDEDGLFTL

Legend:
Jeko1 TMEM30A−/− cells = assay: Uptake/engulfment of pHrodo-labeled JeKo-1 PS+ (TMEM30A−/−) cells by CER T cells; assay type: cell-based; details: pHrodo label, in vitro co-culture
Protocol: FIG. 20: FACs and imaging-based detection of pHrodo dye-labeled tumor cell phagocytosis and endocytosis.
Statistical analysis was performed using 2-way ANOVA.

[1] = test system: A2780 ovarian cancer cells; assay: Viability and phosphatidylserine exposure of A2780 cells treated with PARP inhibitors (annexin V); assay type: cell-based, human; details: for effective concentration that killed 25% cells (EC25): A2780 cells; for phosphatidylserine exposure on viable A2780 cells: subtherapeutic doses, 96 hours
Protocol: Viability (FIG. 31A) and phosphatidylserine (PS) exposure (FIG. 31B) of A2780 cells treated with niraparib or olaparib (both at 0.25 to 6 μM) at 96 hours.
(§1) At day 0, media was exchanged and donor T cells from three subjects (FIG. 28) transduced with CER-1234, CER-1236, or control CER-1183 (FIG. 27A) were added at various effector:target ratios to A2780 cells treated with PARPi to assess chimeric Tim4 receptor-T cell activation, cytokine production, proliferation, and cytotoxic responses. Chimeric Tim4 receptor-T cells immunophenotyping and bulk supernatant analysis was performed on day 2 and day 5 following initiation of co-culture.
Phosphatidylserine exposure on A2780 ovarian cancer cells upon treatment with the small molecule PARP inhibitors niraparib or olaparib was evaluated by annexin v staining to determine the appropriate drug dose. Phosphatidylserine targeting Tim-4 CER constructs designed to enhance cytotoxicity and target-dependent tumor cell fragment uptake were engineered. […] CER-1250 has the same intracellular signaling domains as CER1236 but has a mutated IgV domain with AAAA substitution to abrogate phosphatidylserine binding. Niraparib (0.5 μM) and olaparib (1.5 μM) were used to expose phosphatidylserine on the surface of A2780 cells for CER T cell recognition and cytotoxicity, T-cell activation, and cytokine responses were evaluated. Uptake of antigen by CER-1236 T cells was modeled with human papilloma virus E7 antigen-expressing squamous carcinoma (SCC152) TMEM30A phospholipid flippase knockout cells. […] E7 antigen presentation by CER-1236 T cells was assayed by surface expression of HLA-DR, a marker of T cell activation, on autologous HLA-A2-restricted E7 TCR T cells.
The induction of surface phosphatidylserine expression on A2780 ovarian cells treated with the PARP inhibitors olaparib and niraparib was measured by flow cytometry (FC) using annexin V.

A2780 cells = details: compared to untreated
Protocol: FIG. 34B: At 120 hours, the ratio of cells remaining in treated samples compared to untreated A2780 samples was quantified using the incucyte data from FIG. 34A. FIG. 34C: Proliferation of CER T cells in co-culture assays.
as §1
CER T-cell cytotoxic function was evaluated using the Incucyte® live-cell analysis system in co-culture assays with A2780 cells. A2780 cells engineered to constitutively express mCherry were pretreated with 1.5 μM olaparib, 0.5 μM niraparib or no drug for 96 hours. CER T cells (expanded for 6 days after transduction) in T-cell optimizer media containing IL-2, IL-7, and IL-15 were co-cultured with A2780 cells at an effector:target (E:T) ratio of 1:2 in the presence of the same concentrations of olaparib or niraparib.

Kuramochi cells [2] = assay: Kuramochi co-culture with chimeric Tim4 receptor T cells and Niraparib (IncuCyte); assay type: cell-based; details: Niraparib alone
Protocol: (§2) FIG. 7A: Flow cytometry measurement of surface PtdSer. Kuramochi cells were treated with 1.56 or 25 μM Niraparib or with equivalent volume of DMSO (control). 48 hours later samples were trypsinized and stained using a Tim4-Fc followed by a fluorescently-labeled secondary antibody to the Tim4-Fc. FIG. 7B: Kuramochi cells pre-treated for ˜20 hours with 1.56 μM Niraparib were co-cultured with pCTX133 and Untransduced CD4 T cells from donor 32 at a 2:1 T cell: Kuramochi ratio and a final Niraparib concentration of 1.56 μM. […] All data were collected via IncuCyte.
(§3) In ovarian tumors, poly (ADP-ribose) polymerase (PARP) inhibitors, such as Niraparib, are clinically approved drugs which target DNA damage response pathways. Responses are rarely complete, with relapse common after treatment. To induce Ptd-Ser exposure, BRCA-2 mutated Kuramochi cell line was treated with therapeutic doses of the PARP inhibitor Niraparib.

Kuramochi cells [3] = details: 1.56 or 25 μM Niraparib, 48 hours
Protocol: as §2, §3

REC-1 cells [4] = assay: Phagocytosis of pHrodo-labeled ibrutinib-treated REC-1 cells by CER T cells; assay type: cell-based; details: REC-1 pretreated 10 μM ibrutinib, 16 and 40 hours of co-culture
Text: FIG. 13A: Representative flow cytometry histograms showing engulfment of pHrodo red-labeled REC-1 target cells by CER1234, CER1161, and CER1183 T cells. FIG. 13B: Graphical summary of flow cytometry data showing engulfment of pHrodo red-labeled REC-1 target cells by CER1234, CER1161, and CER1183 T cells. * P<0.01, ** P<0.001, *** P<0.0001; mean+SD, n=4. FIG. 13C: Representative fluorescence microscopy images (at 40×) showing engulfment of pHrodo red-labeled REC-1 target cells by CER1234, CER1161, and CER1183 T cells. FIG. 13D: Engulfed pHrodo-green-labeled REC-1 tumor fragments co-localize into Lyso-tracker red-labeled lysosomes.
Phagocytosis was assessed in co-culture assays of REC-1 cells with CER T cells. […] The percentage of pHrodo red-positive cells was determined by flow cytometry after 16 or 40 hours of co-culture. The localization of tumor fragments in CER T-cell lysosomal compartments was assessed in a separate experiment with REC-1 cells labeled with pHrodo green; following co-culture, all cells were labeled with Lyso-tracker red. Visualization of engulfment was performed by fluorescence microscopy. 1-way ANOVA with Dunnett's post hoc test was performed compared with untransduced T cells.

REC-1 cells [5] = assay: T-cell activation markers PD-1 and 4-1BB in co-culture with REC-1 cells (flow cytometry); assay type: cell-based; details: co-culture with REC-1 cells in the presence of 0.5 μM ibrutinib, 96 hours
Protocol: FIGS. 15A-15B: Induction of Cell-Surface Markers of T-Cell Activation in Ibrutinib-Treated Co-Cultures of CER1183 and CER1234 T cells and REC-1 Target Cells. Samples depicted in bar graphs from left to right, untransduced, CER-1183, and CER-1234. FIG. 15A: PD-1 expression in co-cultures. FIG. 15B: 4-1BB expression in co-cultures.
T-cell activation markers programmed death-1 (PD-1) and 4-1BB were evaluated on viable CD3+ T cells by flow cytometry using commercially available fluorochrome-conjugated antibodies. […] Assays were conducted 96 hours after initiation of co-culture of CER T cells with REC-1 cells.

phosphatidylserine (PS) = assay: Single induction plate assay: IFN-γ by CER T cells on plate-bound phosphatidylserine (ELISA); assay type: cell-based; details: plate-bound PS
Text: (§4) FIGS. 19A-19C: CER T cells are activated and produce IFN-γ in response to phosphatidylserine engagement in a cell-free in vitro system. FIG. 19A: IFN-γ production in response phosphatidylserine (PS). IFN-γ production was induced in CER-1236 and CER-1234 T cells stimulated with PS (FIG. 19A), but not with phosphatidylethanolamine (PE) (FIG. 19B). […] FIG. 19C: CER1236 T cells are capable of recursive stimulation in vitro. Recursive IFN-γ induction with 3 serial stimulations at the indicated time points following a 24-hour rest after the first stimulation.
as §4, with “FIG. 33A-33C:” for “FIGS. 19A-19C:”, “33A:” for “19A:”, “33A),” for “19A),”, “33B).” for “19B).”, “33C:” for “19C:”
FIG. 44 are graphs showing IFNγ production in CER1234 T cells (left) or CER1236 T cells (right) from three donors in response to titrating doses of plate-bound phosphatidylserine.
FIG. 45 are graphs showing IFNγ production in CER1234 T cells or CER1236 T cells by donor in response to increasing doses of plate-bound phosphatidylserine.
FIG. 46 are graphs showing IFNγ production in CER1234 T cells or CER1236 T cells by donor in response to increasing doses of plate-bound phosphatidylserine at day 14 post-thaw.
FIG. 47 are graphs showing T cell expansion (left), IFNγ production (center), and cell viability (right) in CER1236 T cells in response to increasing doses of plate-bound phosphatidylserine.
FIG. 48 are graphs showing T cell expansion (left), IFNγ production (center), and cell viability (right) in CER1234 T cells in response to increasing doses of plate-bound phosphatidylserine.
(§5) CER T-cell activation was assessed by measuring induction of IFN-gamma by plate- and cell-based assays. Single induction plate assay: varying concentrations of phosphatidylserine (PS) or phosphatidylethanolamine (PE), a control membrane phospholipid not recognized by wild type TIM-4 (wtTIM-4), were coated onto high-binding tissue culture plates. CER T cells were added and IFN-γ levels were measured 24 hours after ligand exposure by ELISA. EC50 concentrations were determined by nonlinear regression (agonist vs. response-variable slope (4 parameters)). Induction by recursive stimulation plate assay: CER T cells were added to phosphatidylserine coated plates (2.5-20 μg/mL PS coating). Five days later, CER T cells were transferred to uncoated plates with fresh T cell optimizer media for 24 hours. Then, CER T cells were transferred again to a fresh PS coated plate. Supernatant was collected to assess IFN-γ induction by ELISA at various timepoints during re-stimulation (24, 72, and 120 hours). Cell-based assay: cytokine induction was assessed by multiparametric ELISA using conditioned supernatants harvested after 120 hours from the cytotoxicity assay described below.
T cells obtained from three different donors were transduced with CER1234 or CER1236 and incubated on titrating doses of plate-bound phosphatidylserine.
24 hour IFNγ stimulation by plate-bound phosphatidylserine aligns with day 5 post-activation expansion for CER1236 T cells. […] 24 hour IFNγ stimulation by plate-bound phosphatidylserine aligns with day 5 post-activation expansion for CER1234 T cells.

REC-1 cells [6] = assay: CER T cell cytotoxicity against REC-1 mCherry cells with ibrutinib (Incucyte); assay type: cell-based; details: REC-1 cells
Text: FIG. 38: CER1236 T cells have enhanced and more complete cytotoxic effect against Ibrutinib-treated REC-1 MCL cells but not untreated REC-1 MCL cells.
Ibrutinib was washed off prior to co-culture with CER T cells. […] Total fluorescence of REC-1 mCherry cells decreased as cytotoxicity occurred.

REC-1 cells [7] = assay: Cytokine induction in CER T / REC-1 co-cultures (multiparametric ELISA); assay type: cell-based; details: co-culture with REC-1 cells, 0.5 μM ibrutinib, 96 hours
Protocol: FIGS. 16A-16H: Induction of Cytokines in Ibrutinib-Treated Co-Cultures of CER1183 and CER1234 T cells and REC-1 Target Cells. Samples depicted in bar graphs from left to right, untransduced, CER-1183, and CER-1234. FIG. 16A: TNFα induction. FIG. 16B: IL-2 induction. FIG. 16C: IFNγ. FIG. 16D: IL-5 induction. FIG. 16E: IL-6 induction. FIG. 16F: IL-10 induction. FIG. 16G: IL-4 induction. FIG. 16H: granzyme B induction.
Cytokine induction was assessed by multiparametric ELISA using conditioned supernatants harvested after 96 hours in the cytotoxicity assay described above.
as §5

Row | Molecule | uptake/engulfment of JeKo-1 PS+ (TMEM30A−/−) tumor cell fragments (Jeko1 TMEM30A−/− cells) | effective concentration that killed 25% cells (EC25) [1] | phosphatidylserine exposure on viable A2780 cells [1] | A2780 cells eliminated, single agent (A2780 cells) | other results
1 | CO/C1=C\C(C)=C\[C@@H](C)[C@@H](O)[C@@H](C)C/C(C)=C/C=C/[C@H](OC)[C@@H]([C@@H](C)[C@@H](O)[C@H](C)[C@@]2(O)C[C@@H](O)[C@H](C)[C@@H](C(C)C)O2)OC1=O [Bafilomycin A, reference compound] | blocked tumor cell fragment uptake | – | – | – | –
2 | C=C1[C@@H](C)[C@H]2[C@H](Cc3ccccc3)NC(=O)[C@]23[C@H](OC(C)=O)/C=C/[C@@](C)(O)C(=O)[C@@H](C)C/C=C/[C@H]3[C@@H]1O [Cytochalasin D, reference compound] | blocked tumor cell fragment uptake | – | – | – | –
3 | NC(=O)c1cccc2cn(-c3ccc([C@@H]4CCCNC4)cc3)nc12 [Niraparib] | – | 500 nM | induce phosphatidylserine exposure on viable A2780 cells | 23% | growth of Kuramochi cells (Kuramochi cells [2]): effective in inhibiting growth of Kuramochi cells; surface PtdSer (membrane phospholipid symmetry) (Kuramochi cells [3]): elicits changes in membrane phospholipid symmetry, in a dose dependent manner
4 | O=C(c1cc(Cc2n[nH]c(=O)c3ccccc23)ccc1F)N1CCN(C(=O)C2CC2)CC1 [olaparib] | – | 1500 nM | induce phosphatidylserine exposure on viable A2780 cells | 34% | –
5 | CER1161: Tim4 binding domain-CD28tm-CD28icd-CD3zICD, SEQ ID NO:21 | – | – | – | – | engulfment of pHrodo red+ target cells (REC-1 cells [4]): increased engulfment of pHrodo red+target cells relative to untransduced T cells
6 | B1 | – | – | – | – | PD-1 and 4-1BB expression on the T-cell surface (REC-1 cells [5]): not increased; IFN-γ production in response to phosphatidylserine (phosphatidylserine (PS)): did not induce IFN-γ; tumor cell killing in combination with ibrutinib (REC-1 cells [6]): no additive effect with ibrutinib; cytokine induction: TNF-α, IFN-γ, IL-10, IL-5, granzyme B (REC-1 cells [7]): not induced
